Like-named read-outs stand apart in the source and are kept apart here. Marks after values point to notes of the source that are not given here.
Legend:
Solubility in pure water = assay type: physicochemical; settings: Example 2
Description: A measured amount of Dex-Vi was partially dissolved in pure water. The solution was then centrifuged. The supernatant was decanted, and the volume was measured. The remainder of the solid was dried in a vacuum oven and weighed. Finally, the weight of the remaining Dex-Vi was subtracted from the initial added mass to obtain the amount dissolved in the supernatant, permitting calculation of the maximum soluble concentration.

Viscosity (rheometer) = assay type: physicochemical; settings: 1M, 25° C.
Description: Viscosity measurements were carried out using an Ares G2 rheometer (TA Instruments) with an advanced Peltier system at 25° C.

[1] = Electrochemical impedance spectroscopy (EIS); assay type: physicochemical; settings: for EIS D / EIS i^0 / EIS k^0: Example 2
Description: (§1) CV and EIS experiments were ran using a PalmSens4 potentiostat with the PSTrace software. Electrochemical experiments were performed in 1.0 M NaCl supporting electrolyte using 15 mM of active material at room temperature (18° C.). Formal potentials for the redox couples were estimated by taking the average potential between the cathodic and anodic peak. Diffusional behavior was investigated by varying the scan rate between 10-100 mV·s^−1 for the first electron reduction and 50-200 mV·s^−1 for the second electron reduction, and the diffusion constants of the reduced and oxidized states (D^R and D^O) were determined via the Randles-Sevcik equation assuming ideal reversible behavior (FIG. 12D). Potentiostatic EIS measurements were used for determination of a combined diffusional constant of the reduced and oxidized states (D^EIS) and of the standard electron kinetic rate constant (k^o). These EIS measurements were performed at the formal reduction potential (held for 30 seconds before measurement) in which the concentration of the two redox states at the electrode surface were assumed to be the same and equal to half of the initially prepared redox species concentration.
(§2) A glassy carbon working electrode (CH Instruments, 0.0707 cm^2), a saturated calomel reference electrode (SCE, CH Instruments, +0.241 V vs. SHE), and a platinum wire counter electrode were used for both CV and EIS measurements. The working electrode was polished with 1 μm, 0.3 μm, and 0.05 μm alumina slurry successively. All electrodes were rinsed with deionized water in between measurements.
Potentiostatic EIS measurements were taken at the formal potential in which the reduction and oxidation processes are at equilibrium and the concentrations of the reduced and oxidized states can be assumed equal. This permitted simple calculation of the standard kinetic rate constant (k^o) via Eqn. 2 where R is the ideal gas constant, T is temperature, n is number of electrons, RCT is the charge-transfer resistance, F is Faraday's constant, A is the electrode surface area in cm^2, and C is the concentration of either the oxidized or reduced form at the electrode surface in mole cm^−3 (which is assumed to be half of the initially prepared redox species concentration, C═C^O═C^R=0.5 Cinitial).
A combined diffusion coefficient of the reduced and oxidized state (D^EIS) can also be determined using Eqn. 3, where σ is the Warburg diffusional impedance variable and all other variables have the previously defined meaning.
RCT and σ can be determined by fitting the impedance spectrum to the ideal Randles equivalent circuit for a 3-electrode system where Ru is the uncompensated resistance between the working and reference electrode, RCT is the charge transfer resistance between the working electrode and the redox species, WD is the Warburg diffusional element, and CPE is the constant phase element that represents capacitive behavior of the working electrode.
The raw data was fitted based on this equivalent circuit using the Z-Fitting tool on the PSTrace software and with the Levenberg-Marquardt algorithm across the entire measured frequency range. For the second redox state, D2^EIS were 3.6×10^−6 cm^2·s^−1 and 3.8×10^−6 cm^2·s^−1 and k2^o were 0.13 cm·s^−1 and 0.23 cm·s^−1 for Dex-Vi and BTMAP-Vi, respectively.

Degradation in 1M KOH = assay type: physicochemical
[2] = Table 1, MV; cited from earlier work
[3] = Table 1, MV; cited from earlier work; remark: listed apart in the source
[4] = cited from earlier work; for Anolyte-limiting RFB Stability / RFB Viologen Molarity (1e^−): Table 1, comparison anolytes
[5] = Cyclic voltammetry (formal potentials, Randles-Sevcik diffusion coefficients); assay type: physicochemical
Description: as §1, §2
CVs were taken at various scan rates in order to determine the diffusion coefficients via the Randles-Sevcik relation (Eqn. 1) where ip is the peak current in Amps, n is number of electrons transferred, F is Faraday's constant, A is electrode surface area in cm^2, C is the redox species concentration in mole·cm^−3, R is the ideal gas constant, T is temperature, D is the diffusion coefficient, and v is scan rate in V/s. The anodic peak current […] determines the diffusion coefficient of the reduced state (D^R) while the cathodic peak current (ip,a) determines the diffusion coefficient of the oxidized state (D^O). ip=0.4463n^3/2·F^3/2·A·C·R^−1/2·T^−1/2·D^1/2·v^1/2 Eqn. 1

[6] = Selemion DSV membrane; cited from earlier work
[7] = same electrolyte conditions; cited from earlier work

SMILES	Water Solubility (Solubility in pure water) [mM]	Viscosity at 1M, 25° C. (Viscosity (rheometer)) [cP]	EIS D [1] [cm^2/s]	EIS i^0 [1] [A]	EIS k^0 [1] [cm/s]	Degradation in 1M KOH, k (Degradation in 1M KOH) [s⁻¹]	other results
O=S(=O)([O-])CC[n+]1ccc(-c2cc[n+](CC(O)CO)cc2)cc1.[Cl-] (centres unmarked) [DiOH-EtS-Vi]	1260	2.9	8.134E−06	7.76E−03	0.152	4.4e-06	–
C[n+]1ccc(-c2cc[n+](C)cc2)cc1 [MV]	–	–	–	–	–	–	E1^0 [2]: −0.450/NA V vs. SHE; k1^0 [3]: 0.00028 cm/s; Anolyte-limiting RFB Stability [4]: >547.5%* % decay/year; RFB Viologen Molarity (1e^−) [4]: 0.5
OCCCC[n+]1ccc(-c2cc[n+](CCCCO)cc2)cc1.[Cl-].[Cl-] [ButOH-Vi]	1360	1.6	2.36E−05	1.25E−05	0.000244	–	–
O=S(=O)([O-])CC[n+]1ccc(-c2cc[n+](CCS(=O)(=O)[O-])cc2)cc1 [EtS-Vi]	530	–	5.2921E−06	3.47E−03	0.0677	–	–
C[N+](C)(C)CC(O)C[n+]1ccc(-c2cc[n+](CC(O)CS(=O)(=O)[O-])cc2)cc1.[Cl-].[Cl-] (centres unmarked) [Dex-SHOP-Vi]	1270	–	4.497E−06	1.57E−03	0.0307	–	–
C[N+](C)(C)CC(O)C[n+]1ccc(-c2cc[n+](CC(O)CO)cc2)cc1.[Cl-].[Cl-].[Cl-] (centres unmarked) [Dex-DiOH-Vi]	1730	3.9	5.562E−06	6.20E−03	0.121	4.06e-06	–
OCC(O)C[n+]1ccc(-c2cc[n+](CC(O)CO)cc2)cc1.[Cl-].[Cl-] (centres unmarked) [DiOH-Vi]	1990	3.0	6.622E−06	1.14E−03	0.0222	2.296e-06	–
C[N+](C)(C)CCC[n+]1ccc(-c2cc[n+](CCC[N+](C)(C)C)cc2)cc1.[Cl-].[Cl-].[Cl-].[Cl-] [BTMAP-Vi, bis(3-trimethylammonio)propyl viologen tetrachloride, reference compound]	–	–	–	–	–	–	first electron formal potential (E1^0) ([5]; 15 mM in 1.0 M NaCl, 18° C.): −0.349 V vs. SHE; E1^0 ([5]; Table 1): −0.349 V vs. SHE; E2^0 ([5]; Table 1): −0.713 V vs. SHE; reduced state diffusion coefficient (D1^R) ([5]; first redox state, 3+ species): 2.7×10^−6 cm^2·s^−1; oxidized state diffusion coefficient (D1^O) ([5]; first redox state, 4+ species): 2.4×10^−6 cm^2·s^−1; D2^O ([5]; second redox state): 2.3×10^−6 cm^2·s^−1; D2^R ([5]; second redox state): 2.5×10^−6 cm^2·s^−1; second electron formal potential (E2^0) ([5]; vs. SHE, 15 mM in 1.0 M NaCl, 18° C.): −0.713 V; k1^0 ([1]; Table 1): 0.089 cm/s; combined diffusion coefficient (D1^EIS) ([1]; first reduction): 4.1×10^−6 cm^2·s^−1; standard rate constant (k1^0) ([1]; first reduction): 0.089 cm/s; D2^EIS ([1]; second redox state): 3.8×10^−6 cm^2·s^−1; k2^o ([1]; second redox state): 0.23 cm/s; permeance, reported value [6]: 6.7×10^−10 cm^2·s^−1; reported symmetric cell decay rate [7]: 0.0016 % per day; reported concentration when both electrons are utilized ([4]; DeBruler et al., 2017): 0.25 M; Anolyte-limiting RFB Stability [4]: 36.5% decay/year; RFB Viologen Molarity (1e^−) [4]: 1.5
OCC[n+]1ccc(-c2cc[n+](CCO)cc2)cc1.[Cl-].[Cl-] [EtOH-Vi]	2510	2.4	9.868E−06	4.53E−03	0.0885	–	–
O=S(=O)([O-])CC(O)C[n+]1ccc(-c2cc[n+](CC(O)CO)cc2)cc1.[Cl-] (centres unmarked) [DiOH-SHOP-Vi]	<500	–	5.419E−06	4.06E−03	0.0794	–	–
